Assay results taken from patent US11097016B2, “Use of lyso-Gb1 as druggable target” (Centogene GmbH, priority 2016, dated 2021).
“Also recorded” adds a separate entry of the source.

Tests used:
[1] = test system: TNF-α and IL-1β; assay: Cytokine analysis in blood (ProcartaPlex Multiplex Immunoassay); format: in vivo, mice
Description: The ProcartaPlex® Multiplex Immunoassay (ebioscience, San Diego, Calif.) was carried out following the instructions of the provider. Differences between the animal groups were obtained using automated MAGPIX® analysis device software (Luminex, Austin, Tex.) including quality control criteria.

[2] = test system: F4/80 and CD68; assay: Western blot of inflammatory tissue markers F4/80 and CD68 in spleen and liver; format: in vivo, C57BL/6JRj mice
Description: Livers and spleens were homogenized in RIPA buffer containing proteinase and phosphatase inhibitor (Roche, Mannheim, GER). Lysates were centrifuged at 15,000 g, 4° C. for 15 min to remove insoluble pellet, and supernatant was collected. Protein concentration was measured using Pierce BCA Protein Assay Kit (Thermo Fisher Scientific, Waltham, Mass.). Typically, […] protein was loaded for electrophoresis on a 4%-15% precast Tris-glycine gradient gel (BioRad, Mannheim, GER). The protein was subsequently transferred to a nitrocellulose membrane by semidry transfer apparatus (BioRad, Munich, GER) for immunodetection analysis. The target proteins were detected by rat anti F4/80 (1:500, Biolegend, San Diego, Calif.), rat anti-CD68 [FA-11] (1:200 abcam, Cambridge, UK) mouse anti GAPDH (1:10,000, abcam, Cambridge, UK), each in TBST supplemented with 5% skim milk powder (Sigma Aldrich, Munich, GER). Fluorescent conjugate secondary antibodies were applied for the detection with a Li-Cor Odyssey imaging system (Bad Homburg, GER).
In order to investigate the molecular changes of both spleen and liver in terms of tissue inflammation macrophagic marker proteins F4/80 and CD68 were analysed.

[3] = Histopathological evaluation (H&E) of spleen, liver and femur; format: in vivo, C57BL/6JRj mice; details: data not shown
Description: After removal, organs were fixed in formalin for 24 h and transferred into 70% ethanol. To ensure a non-biased comparison the same parts of organs were analysed by HISTALIM (Montpellier, France). The samples were processed on the Peloris automaton (Leica, Wetzlar, Germany) according to the 4 h program validated for mouse organs. The samples were embedded in paraffin wax according to HISTALIM procedures. For the liver, spleen and femur samples, a section (3-5 μm thickness) was prepared and deposited preferentially on Superfrost+slide (to ensure tissue adhesion) to be stained according to a validated hematoxylin/eosin (H&E) protocol. All the slides were digitalised with the Nanozoomer scanner (Hamamatsu Photonics, Hamamatsu, Japan) in conditions bright field conditions, with the objective×20, without Z stack. Slides were examined by a senior histopathologist to assess the toxicological effects of lyso-Gb1 on the tested mice.

[4] = Lyso-Gb1 in 24 hr urine (LC/MRM-MS); format: in vivo, C57BL/6JRj mice; details: 6 weeks after treatment start
Description: 25 μL urine aliquots were added to 100 μL of internal standard and 250 μL ethanol. The samples were cooled to 4° C. for 1 h to precipitate the urine proteins, after which they were spun in a benchtop centrifuge for 3 minutes at 14,500 rpm. The volume of each sample was quantitatively transferred to a 96-well plate, and further processed as described above.
(§1) LC-MRM-MS analyses of the lyso-Gb1 for both DBS and organ extracts were performed using a Waters Acquity UPLC (Waters, UK) coupled with an ABSciex 5500 TripleQuad mass spectrometer (ABSciex, Darmstadt, Germany). Chromatographic run was performed on a C8 column with pore size of 3 mM (ACE columns, Germany) using a flow rate of 0.9 ml/min preheated at 60° C. […] The following MRM transitions were monitored: 624.3-282.2 for the internal standard (with DP of 30V, CE of 38 V and CXP of 10 V) and 462.3→282.2 for lyso-Gb1 (with DP of 28V, CE of 30 V and CXP of 10 V). MRM-MS analyses were performed in positive ion mode using the following parameters: CUR gas 40 psi, IS voltage 5.5 kV, CAD 8 psi, cone temperature 500° C., GS 1 45 psi, GS2 60 psi, EP 10 V. For all batches analyzed a standard curve was measured using 7 dilutions of lyso-Gb1 in ethanol (concentrations in ng/ml: 0; 5; 10; 50; 100; 200; 1000).

[5] = Organ weight analysis; format: in vivo, C57BL/6JRj mice
Description: (§2) Blood sampling was carried out using Li-heparine blood obtained from the lateral tail vein. At each sampling time point 2 aliquots of 20 μl were transferred to dried blood spot filter cards (Centogene AG, Rostock, Germany). After the last sampling time point the mice were sacrificed by inhalation of an overdose of isoflurane and organs were removed, frozen and collected for future examinations. Where applicable, organs were intersected. Half of the organ was immediately frozen in liquid nitrogen. The other half was formalin-fixed and paraffin-embedded for histologic analysis (Histalim, Montpellier, France).
3.2 As anemia is a frequent result of enlarged spleen, another hallmark of Gaucher disease, an organ weight analysis, a Western blot analysis and size and color analysis of the spleen was carried out. The results thereof are shown in FIG. 4A, FIG. 4B and FIG. 4C.

[6] = General health, body weight and behaviour during treatment; format: in vivo, C57BL/6JRj mice
Description: (§3) Animal experimental procedures were carried out at Pharmacelsus GmbH, Saarbrücken, Germany. Adult male C57BL/6JRj mice (10 weeks old, purchased from Janvier Labs, France) were housed in a temperature-controlled room (20-24° C.) and maintained in a 12 h light/12 h dark cycle. Food (Ssniff® R/M-H, 10 mm) and water were provided ad libitum.
Ten weeks old C57BL/6JRj mice were subcutaneously treated with high doses (10 mg*kg−1*day−1) of lyso-Gb1 for a period of up to 84 days (12 weeks).

[7] = test system: CD68 and F4/80 positive cells; assay: Immunohistochemistry of spleen sections (anti-CD68, anti-F4/80); format: in vivo, C57BL/6JRj mice
Description: For immunohistochemistry 5 μm paraffin sections of the spleens of 8-week treated mice were subjected to rat anti-CD68 clone FA-11 (1:100, Bio-Rad Laboratories, Raleigh, N.C., USA) and rat anti-mouse F4/80 Cl:A3-1 (1:100, BioLegend, San Diego, Calif., USA). Sections were then deparaffinised, rehydrated and pre-treated in the microwaves in 0.1 M citrate buffer (5 min 850 W and 5 min 340 W) followed by consecutive incubation with 3% H2O2 in PBS to block endogenous peroxidases for 30 min, then 3% bovine serum albumin with 1.5% normal goat serum (NGS) in PBS for 1 h to block nonspecific epitopes. Subsequently, sections were exposed to the primary antibody in 3% NGS/PBS overnight at 4° C. Depending on the primary antibody and after washing in PBS, the sections were sequentially incubated for 1 h with the secondary anti-rat or anti-mouse IgG (1:200; Vector, Burlingame, Calif., USA), streptavidin-biotin-complex (ABC) reagent for 1 h (Vectastain-Elite; Vector, Burlingame, Calif., USA) and then finally visualised with 3,-3,-diaminobenzidine (DAB, Sigma, Munich, Germany), which was activated with H2O2. Sections were counterstained with hematoxylin, dehydrated, mounted with DePeX and coverslipped.

[8] = Blood count analysis for systemic damage; format: in vivo, C57BL/6JRj mice
Description: Mice were exsanguinated via the retrobulbar venous plexus under isoflurane anesthesia before being sacrificed by overdose inhalation. 200 μL EDTA samples of whole blood were drawn from each animal to analyze […], leukocyte count, erythrocyte count, hemoglobin (Hb), hematocrit (PCV=packed cell volume, Hct), mean cell volume (MCV), mean cell Hb (MCH), mean cell Hb concentration. (MCHC) and platelet count (PLT) (IDEXX Bioresearch, Ludwigsburg, Germany).
3.1 It was tested whether the high lyso-Gb1 levels caused systemic damage to the animals. Such systemic damage was assessed by blood count analysis.

[9] = Lyso-Gb1 determination in organs (LC/MRM-MS); format: in vivo, C57BL/6JRj mice
Description: After extraction from the animal, the organs were immediately deep-frozen in liquid nitrogen. The samples were lyophilized (Alpha 2-4 LSC, Christ, Osterode am Harz, GER) and powdered with mortar and pistil. Fractions of 2 to 5 mg powder were established in round bottom tubes. On top of the powder, 50 μl per mg powder extraction solution was added and the sample was incubated for 5 minutes at 37° C. under agitation. Subsequently, the samples were frozen in liquid nitrogen for 30 seconds and sonicated with boost function for 5 minutes. The incubation, freezing and sonication steps were repeated 6 times. At the end the mixtures were vortexed and aliquots of 25 μl suspension were used for the lyso-Gb1 determination. Each sample was supplemented with 100 μl Internal Standard (lyso-Gb2, 200 ng/ml) and 250 μl ethanol. The samples were cooled at 4° C. for 1 h to precipitate the membrane proteins and spun in a benchtop centrifuge for 3 minutes at 14.5 krpm. The volume of each sample was quantitatively transferred to a 96-well filter plate and further processed as described above.
LC-MRM-MS analyses of the lyso-Gb1 for both DBS and organ extracts were performed using a Waters Acquity UPLC (Waters, UK) coupled with an ABSciex 5500 TripleQuad mass spectrometer (ABSciex, Darmstadt, Germany). Chromatographic run was performed on a C8 column with pore size of […] (ACE columns, Germany) using a flow rate of 0.9 ml/min preheated at 60° C. The 10 μl extract were injected on the column and the compounds were eluted using a linear gradient from 40% A (50 mM formic acid in water) to 100% B (50 mM formic acid in acetone:acetonitrile vol. 1:1). Upstream from UPLC a 3:1 flow splitter was added. The following MRM transitions were monitored: 624.3-282.2 for the internal standard (with DP of 30V, CE of 38 V and CXP of 10 V) and 462.3→282.2 for lyso-Gb1 (with DP of 28V, CE of 30 V and CXP of 10 V). MRM-MS analyses were performed in positive ion mode using the following parameters: CUR gas 40 psi, IS voltage 5.5 kV, CAD 8 psi, cone temperature 500° C., GS 1 45 psi, GS2 60 psi, EP 10 V. For all batches analyzed a standard curve was measured using 7 dilutions of lyso-Gb1 in ethanol (concentrations in ng/ml: 0; 5; 10; 50; 100; 200; 1000).
After 4 weeks from treatment start the organs of the mice were subjected to lyso-Gb1 analysis.

[10] = Lyso-Gb1 level in blood (dried blood spots, LC/MRM-MS) upon continuous subcutaneous administration; format: in vivo, C57BL/6JRj mice
Description: as §3
All experimental procedures were approved by and conducted in accordance with the regulations of the local Animal Welfare authorities. The lyso-Gb1 stock solution was prepared in DMSO and propylene glycol at 37° C. with ultrasonic bath treatment for 10 min. Subcutaneous administration of lyso-Gb1 (Matreya LLC, USA) was achieved by the use of ALZET pumps implanted in the back of their necks and set to a flow rate of 2.64 μl/day in order to obtain a daily dosage of 10 mg lyso-Gb1/kg body weight. The pumps were loaded with the stock solution and primed prior to implantation according to the manufacturer's instructions.
as §2
3 punches of 3.2 mm in diameter were cut using a DBS puncher (Perkin Elmer LAS, Germany) and placed in a 2.2 ml round bottom tube (Eppendorf, Germany). 50 μl extraction solution (DMSO: water, 1:1) and 100 μI internal standard solution with the standard being dissolved in ethanol were added on top of the paper punches. Samples were mixed for 30 seconds and placed in an incubator (Heidolph, Schwabach, Germany) for 30 minutes at 37° C. under agitation at 700 rpm. […]
as §1, with “Germany).” for “Germany). Chromatographic run was performed on a C8 column with pore size of 3 mM (ACE columns, Germany) using a flow rate of 0.9 ml/min preheated at 60° C.”, “1000). […]” for “1000).”

TNF-α and IL-1β in the blood [1]: slight elevation
upregulation of most investigated cytokines [1]: did not find significant upregulation
F4/80 and CD68 protein levels in liver (Western blot) ([2]; liver): only mild changes
H&E histological stain of spleen, liver and femur, vehicle vs lyso-Gb1 treated [3]: did not reveal significant abnormalities
calculated excretion rate of lyso-Gb1 in urine [4]: 0.6 ng/min
spleen weight versus controls ([5]; 8 and 12 weeks from treatment initiation): enlarged
liver size in subsequent experiment ([5]; lyso-Gb1 treatment started earlier (P20), data not shown): marked enlargement of the liver
size of heart, lung and kidney ([5]; mouse, in vivo): normal in size
number of CD68 and F4/80 positive cells in spleen sections in comparison to vehicle controls ([7]; paraffin sections from spleen): marked increase
CD68-immunoreactivity in spleen compared to vehicle controls ([7]; spleens of 8-week treated mice): strong increase
F4/80 immunoreactivity in spleen compared to vehicle controls ([7]; spleens of 8-week treated mice): increased
organ with highest lyso-Gb1 levels ([9]; 4 weeks from treatment start): kidney and liver
lyso-Gb1 levels in peripheral organs (heart, kidney, liver, spleen) compared to control animals ([9]; 4 weeks from treatment start, 10 mg*kg^−1*day^−1): strongly elevated
increase of brain lyso-Gb1 ([9]; 4 weeks from treatment start, attributed to carryover of blood in tissue capillaries): 2 fold
lyso-Gb1 levels in blood ([10]; 24 hrs after treatment start (data not shown)): strongly elevated
increase of blood lyso-Gb1 level compared to the vehicle-treated mice ([10]; after 4, 8 and 12 weeks, s.c. 10 mg/kg/day): more than 500 fold
lyso-Gb1 level in blood ([10]; after 4, 8 and 12 weeks, s.c. osmotic pump, 10 mg lyso-Gb1/kg body weight daily): 700 to 900 ng/mL
concentration at 4 weeks ([10]; male, C57BL/6JRj, mouse, whole blood (dried blood spots), sc, 10 mg/kg/day, 4 weeks after begin of treatment, s.c. 10 mg*kg−1*day−1): > 500 ng/mL
SMILES: CCCCCCCCCCCCC/C=C/[C@@H](O)[C@@H](N)CO[C@@H]1O[C@H](CO)[C@@H](O)[C@H](O)[C@H]1O [lyso-Gb1, glucosylsphingosine]
F4/80 and CD68 protein levels in spleen (Western blot) ([2]; spleen): pronounced increase; also recorded: elevated
liver weight versus controls ([5]; 8 and 12 weeks): not statistically significantly different; also recorded: not statistically distinct from control animals
behaviour ([6]; mouse, in vivo): no behavioral abnormalities
body weight / health status ([6]; throughout the experimental phase (up to 12 weeks)): did not lose weight
Hb (hemoglobin) values ([8]; 4, 8 and 12 weeks, 2× SD below the baseline value at each time point): mild anemia; also recorded: mild anaemia
Hct (haematocrit) values ([8]; differed at 4 and 8 weeks after treatment initiation): significantly differed; also recorded: lowered
thrombocytopenia / white blood cell abnormalities ([8]; up to 12 weeks treatment): no thrombocytopenia or abnormalities in white blood cells
crossing of the blood brain barrier ([9]; concluded from negligible increase in brain lyso-Gb1): not able to cross the blood brain barrier
